The experiment concerns the target T1, cholesteryl ester transfer protein (CETP) (Homo sapiens, UniProt P11597).
T1 construct: the source of CETP was human lipoprotein-deprived serum (LPDS); from tissue; host or cells: human lipoprotein-deprived serum (LPDS)
T1 sequence (P11597 18-493): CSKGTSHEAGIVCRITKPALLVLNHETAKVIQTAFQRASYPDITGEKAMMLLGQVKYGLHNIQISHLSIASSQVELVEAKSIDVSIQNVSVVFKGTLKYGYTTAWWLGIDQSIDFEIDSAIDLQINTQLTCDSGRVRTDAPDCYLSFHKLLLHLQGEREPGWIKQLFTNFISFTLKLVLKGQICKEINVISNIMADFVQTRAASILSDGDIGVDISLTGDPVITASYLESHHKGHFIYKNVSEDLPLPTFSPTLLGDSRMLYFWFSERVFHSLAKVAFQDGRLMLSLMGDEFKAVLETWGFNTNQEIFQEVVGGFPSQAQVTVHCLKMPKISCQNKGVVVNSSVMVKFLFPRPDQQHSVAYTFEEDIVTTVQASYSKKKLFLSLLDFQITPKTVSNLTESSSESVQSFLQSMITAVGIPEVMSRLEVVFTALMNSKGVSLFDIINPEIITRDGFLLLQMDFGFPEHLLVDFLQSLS
Kind of experiment: CETP activity SPA assay in the presence of plasma (human lipoprotein-deprived serum as source of CETP). The experiment is classed as biochemical. As to conditions: source of CETP was human lipoprotein-deprived serum (LPDS), transfer of radiolabeled cholesteryl ester from HDL donor to biotin-labeled LDL acceptor particles. The method, then:
Activity of CETP inhibitors was determined using a buffer assay system. Partially purified CETP transferred radiolabeled cholesteryl ester from HDL donor particles to biotin-labeled LDL acceptor particles. The reaction was stopped by addition of streptavidin-coupled scintillation proximity assay (SPA) beads. These beads captured the biotinylated acceptor particles and transferred radioactivity was measured. The assay system was purchased and performed according to manufacturer's recommendations (Amersham Biosciences). Inhibitory activity of compounds was determined as percentage of positive control activity containing CETP together with donor and acceptor particles. Serial dilution of compounds was performed in order to determine the IC50 values.
Activity of the compounds was subsequently measured in the presence of plasma using the same assay as described above except that the source of CETP was human lipoprotein-deprived serum (LPDS). Inhibitory activity of compounds was determined as percentage of positive control activity containing all the assay components except compound. Serial dilution of compounds was performed in order to determine the IC50 values.
The IC50 is the concentration needed to halve the response being measured. As for `CC(C)(C)c1ccc(CN(CCc2ccc(F)cc2)C(=O)c2ncc(F)c3cc[nH]c23)cc1` [Compound 3.15, 4-fluoro-1H-pyrrolo[2,3-c]pyridine-7-carboxylic acid (4-tert-butyl-benzyl)-[2-(4-fluoro-phenyl)-ethyl]-amide], the half-maximal inhibitory concentration (IC50) amounted to 437 nM.

Turning to `CC(C)(C)c1ccc(CN(CCc2cccc(C(F)(F)F)c2)C(=O)c2nc(Cl)cc3cc[nH]c23)cc1` [Compound 3.22, 5-chloro-1H-pyrrolo[2,3-c]pyridine-7-carboxylic acid (4-tert-butyl-benzyl)-[2-(3-trifluoromethyl-phenyl)-ethyl]-amide], the half-maximal inhibitory concentration (IC50) came out at 175 nM.

Turning to `Cc1cc2cc[nH]c2c(C(=O)N(CCc2ccc(Cl)c(Cl)c2)Cc2ccc(C(C)(C)C)cc2)n1` [Compound 3.14, 5-methyl-1H-pyrrolo[2,3-c]pyridine-7-carboxylic acid (4-tert-butyl-benzyl)-[2-(3,4-dichloro-phenyl)-ethyl]-amide], the concentration for half-maximal inhibition (IC50) worked out at 141 nM.

For the origin of these results see patent publication US7691876B2, “Heterobicyclic amide compounds” (Hoffmann-La Roche Inc., priority 2006, dated 2010).
